Reference: patent US4137322A, “ML-236B carboxylic acid derivatives and their use as antihyperlipemic agents” (Sankyo Company Limited, priority 1976, dated 1979)
Counter-ions that a name gives are not always drawn.

Tests used:
cholesterol biosynthesis = assay: Inhibition of cholesterol biosynthesis; assay type: biochemical
[1] = biological target: T1, 3-hydroxy-3-methylglutaryl-CoA reductase (Rattus norvegicus, UniProt P51639); assay: Inhibition of 3-hydroxy-3-methylglutaryl-CoA reductase; assay type: biochemical; conditions: enzyme: microsome of rat liver; read-out: Concentration to inhibit 50% of 3-hydroxy-3-methylglutaryl-CoA reductase (converted)
T1 construct: Employed as an enzyme microsome of rat liver; from tissue; host or cells: rat liver microsomes
T1 sequence (P51639 1-887): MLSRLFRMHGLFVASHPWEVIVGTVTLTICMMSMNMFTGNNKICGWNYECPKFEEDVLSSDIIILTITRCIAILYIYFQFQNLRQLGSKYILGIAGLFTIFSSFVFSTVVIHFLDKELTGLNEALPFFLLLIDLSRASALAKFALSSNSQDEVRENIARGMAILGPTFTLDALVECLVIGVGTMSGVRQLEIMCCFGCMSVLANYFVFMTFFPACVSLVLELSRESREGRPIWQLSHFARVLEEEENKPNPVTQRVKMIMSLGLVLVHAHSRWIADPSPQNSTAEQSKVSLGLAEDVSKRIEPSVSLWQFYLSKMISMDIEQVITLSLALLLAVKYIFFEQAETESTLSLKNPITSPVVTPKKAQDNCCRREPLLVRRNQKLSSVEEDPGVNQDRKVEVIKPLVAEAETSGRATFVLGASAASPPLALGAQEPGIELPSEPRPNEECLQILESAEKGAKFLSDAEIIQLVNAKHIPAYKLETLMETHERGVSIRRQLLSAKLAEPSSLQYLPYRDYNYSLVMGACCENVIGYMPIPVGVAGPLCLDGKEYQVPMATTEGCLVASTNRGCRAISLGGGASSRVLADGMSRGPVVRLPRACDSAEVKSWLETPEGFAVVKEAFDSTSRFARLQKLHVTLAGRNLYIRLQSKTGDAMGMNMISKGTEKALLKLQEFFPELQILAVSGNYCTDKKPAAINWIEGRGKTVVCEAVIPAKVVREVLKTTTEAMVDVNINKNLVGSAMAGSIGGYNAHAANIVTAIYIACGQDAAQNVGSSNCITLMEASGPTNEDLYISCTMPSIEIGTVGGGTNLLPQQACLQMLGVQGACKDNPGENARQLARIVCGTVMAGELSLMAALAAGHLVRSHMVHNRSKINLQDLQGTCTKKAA
Excerpt: Inhibition activity of cholesterol biosynthesis [determined according to the method disclosed in J. Biol. Chem., 234, 2835 (1959)] and inhibition activity on 3-hydroxy-3-methylglutaryl-CoA reductase [determined according to the method disclosed in Anal. Biochem., 31, 383 (1969)] of these compounds are summarized in Table 1.
*Employed as an enzyme microsome of rat liver.

[2] = system: total serum cholesterol in beagle dogs; assay: Lowering activity of blood cholesterol in beagle dogs; assay type: in vivo, beagle dog; conditions: beagle dogs, oral twice per day, 5 days
Excerpt: The test was to orally administer an encapsulated test sample twice per day, in the morning (9 o'clock) and evening (16 o'clock), for continuous 5 days, collect a blood sample in the morning after 5 days and determine a total cholesterol level in serum by a conventional method.

[3] = system: serum cholesterol in rats; assay: Lowering activity of blood cholesterol in rats; assay type: in vivo, rat; conditions: rats, oral, after 18 hours
Method: A lowering activity of blood cholesterol in rats was assayed on rats. The test was to orally administer a test sample suspended in water, collect a blood sample after 18 hours and determine a cholesterol level in serum by a conventional method.

Mouse = assay: Acute toxicity in mouse; conditions: aqueous suspension
Method: (§1) Acute toxicity of ML-236B carboxylic acid derivatives (I) was determined in oral and intraperitoneal administration (both as an aqueous suspension).

Rat = assay: Acute toxicity in rat; conditions: aqueous suspension
Method: as §1

Acute toxicity in mouse = conditions: in vivo, ip, LD50, mouse, aqueous suspension
Method: as §1

Acute toxicity in rat = conditions: in vivo, ip, LD50, rat, aqueous suspension
Method: as §1

[4] = p.o., listed as ML-236B Na salt

Row | SMILES | Concentration to inhibit 50% of cholesterol biosynthesis (cholesterol biosynthesis) [µg/mL] | IC50 [1] [nM] | Lowering rate of total serum cholesterol ([2]; 25 mg/kg/day) [%] | Lowering rate of total serum cholesterol ([2]; 100 mg/kg/day) [%] | Lowering rate of serum cholesterol ([3]; 5 mg/kg, 5 mg/kg) [%] | Lowering rate of serum cholesterol ([3]; 20 mg/kg, 20 mg/kg) [%] | LD50 (Mouse; i.p.) [mg/kg] | LD50 (Mouse; p.o.) | LD50 (Rat; i.p.) [mg/kg] | LD50 (Rat; p.o.) | inhibition in vivo at 25 mg/kg/day ([2]; Canis lupus familiaris, po, 120 h, 25 mg/kg/day, read-out: Lowering rate of total serum cholesterol) [%] | inhibition in vivo at 100 mg/kg/day ([2]; Canis lupus familiaris, po, 120 h, 100 mg/kg/day, read-out: Lowering rate of total serum cholesterol) [%] | inhibition in vivo at 5 mg/kg ([3]; Rattus norvegicus, po, 18 h, 5 mg/kg, read-out: Lowering rate of serum cholesterol) [%] | inhibition in vivo at 20 mg/kg ([3]; Rattus norvegicus, po, 18 h, 20 mg/kg, read-out: Lowering rate of serum cholesterol) [%] | LD50 (Acute toxicity in mouse) [mg/kg] | LD50 (Mouse; [4]) | LD50 (Acute toxicity in rat) [mg/kg] | LD50 (Rat; [4])
1 | CCC(C)C(=O)OC1CCC=C2C=CC(C)C(CCC(O)CC(O)CC(=O)O)C21 (centres unmarked) [Arginine, Arginine salt of ML-236B carboxylic acid] | 0.007 | 441 | 26 | 45 | 19.6 | 24.1 | > 500 | > 5,000 mg/kg | > 500 | > 5,000 mg/kg |  |  |  |  |  |  |  | 
2 | CCC(C)C(=O)OC1CCC=C2C=CC(C)C(CCC(O)CC(O)CC(=O)O)C21 (centres unmarked) [Lysine, Lysine salt of ML-236B carboxylic acid] | 0.006 |  | 24 | 44 | 16.9 | 23.8 | > 500 | > 5,000 mg/kg | > 500 | > 5,000 mg/kg |  |  |  |  |  |  |  | 
3 | CCC(C)C(=O)OC1CCC=C2C=CC(C)C(CCC(O)CC(O)CC(=O)O)C21 (centres unmarked) [Na, Sodium ML-236B carboxylate] | 0.006 | 392 |  |  |  |  |  |  |  |  | 24 | 47 | 20.6 | 23.1 | > 500 | > 2,000 mg/kg | > 500 | > 2,000 mg/kg
